The test system of test [1] is pancreas cancer cell line T3M-4. The test can be described thus: Amino acid concentration in culture medium of pancreas cancer cell line with LAT1 inhibitor added. The class given is cell-based. The note with it: T3M-4 culture, inhibitor added at each concentration, medium collected 0-97 hrs (FIG. 3b). On the procedure: (§1) Each of the cancer cell lines 44As3-11 (gastric cancer cell line), T3M-4 (pancreas cancer cell line), and MIAPaCa-2 (pancreas cancer cell line) was used. By using a 6 well plate, culture was performed at 37° C. with 5×10^4 cells in 3 mL (10% FBS, L-Glu+PS in RPMI1640). The culture medium was collected at 0, 24, 48, 72, and 97 hrs and centrifuged at 1,000 rpm. The supernatant (1.0 mL) was then stored in a deep freezer (−80° C.) during a period until determination. Eight kinds of amino acids (including phenylalanine in addition to the aforementioned histidine, isoleucine, leucine, methionine, tryptophan, valine, and tyrosine) were measured by mass analysis. Each culture was performed in triplet and, by measuring the sample, the concentration of each amino acid was represented as mean value±standard deviation, and then compared among the groups. Furthermore, after adding an anticancer agent (O-(5-amino-2-phenylbenzoxazol-7-yl)methyl-3,5-dichloro-L-tyrosine) at each concentration to the culture medium, the property of inhibiting the decrease in amino acid concentration in the culture medium was observed.
(§2) 3) As for the statistical processing, Mann-Whitney U test was used for comparison between two groups, and those having a risk ratio of 0.05 or less were determined to be a significant difference.

For test [2], the target named is T1, LAT1 (Homo sapiens, UniProt Q01650).
T1 construct: from tissue; host or cells: Solid tumours (pancreas, colon, gall bladder cancer with metastases) in living patients
T1 sequence (Q01650 whole entry): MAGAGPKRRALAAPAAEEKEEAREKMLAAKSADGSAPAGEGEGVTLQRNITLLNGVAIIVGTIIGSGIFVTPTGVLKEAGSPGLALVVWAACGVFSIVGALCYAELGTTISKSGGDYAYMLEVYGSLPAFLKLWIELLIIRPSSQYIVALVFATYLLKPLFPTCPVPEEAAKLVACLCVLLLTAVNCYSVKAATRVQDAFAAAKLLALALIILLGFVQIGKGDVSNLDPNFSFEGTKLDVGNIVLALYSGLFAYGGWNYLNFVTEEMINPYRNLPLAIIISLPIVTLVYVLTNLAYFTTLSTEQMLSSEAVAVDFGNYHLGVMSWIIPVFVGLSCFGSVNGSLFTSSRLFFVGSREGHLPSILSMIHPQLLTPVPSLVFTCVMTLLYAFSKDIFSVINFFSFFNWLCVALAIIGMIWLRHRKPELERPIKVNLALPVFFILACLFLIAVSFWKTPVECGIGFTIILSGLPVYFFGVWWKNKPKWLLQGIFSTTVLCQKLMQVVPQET
T1 sequence (P08195 102-630 partner): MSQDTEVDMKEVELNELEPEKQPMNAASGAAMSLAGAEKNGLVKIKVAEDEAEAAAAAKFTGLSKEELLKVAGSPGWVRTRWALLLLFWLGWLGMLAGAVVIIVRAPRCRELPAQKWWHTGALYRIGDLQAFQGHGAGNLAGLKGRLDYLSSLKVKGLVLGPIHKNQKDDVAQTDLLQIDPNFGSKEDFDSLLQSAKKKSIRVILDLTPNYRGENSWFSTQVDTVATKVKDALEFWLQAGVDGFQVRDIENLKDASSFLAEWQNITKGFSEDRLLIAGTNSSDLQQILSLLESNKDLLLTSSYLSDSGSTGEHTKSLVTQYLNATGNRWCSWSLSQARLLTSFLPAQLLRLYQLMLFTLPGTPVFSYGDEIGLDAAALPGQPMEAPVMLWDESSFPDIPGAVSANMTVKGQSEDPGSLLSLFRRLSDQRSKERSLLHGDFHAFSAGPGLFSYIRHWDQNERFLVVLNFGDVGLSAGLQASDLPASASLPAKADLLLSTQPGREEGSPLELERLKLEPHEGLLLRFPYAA
The experiment in a line: Free amino acid concentration in blood serum of cancer patients at BSC stage administered inhibitor agent. It is filed as in vivo. On the procedure:
Immediately after collecting blood from patients having gastric cancer [100 samples, average age (lowest value-highest value) 66.1 (31 to 89 years old), sex ratio 72:28], pancreas cancer [27, 70.3 (56 to 81) 13:14], or bile duct cancer [6, 70.5 (68 to 75) 5:1] and healthy control with no cancer [12, 50.8 (29 to 73) 11:1], blood serum was isolated and stored in a deep freezer (−80° C.) during a period until determination. The concentration of seven types of amino acids (histidine, isoleucine, leucine, methionine, tryptophan, valine, and tyrosine) was measured by mass analysis, and the measurement result was compared to the value obtained from blood of a healthy control. The concentration of each amino acid was represented as relative value of each case, with the mean value from the healthy control being 100%. The percentage was compared between the cancer patient and healthy control.
A predetermined clinical test (test and experiment) was registered with an administration bureau, and after obtaining an approval of the institutional review board (IRB) of a site management organization, patients were selected and blood serum for analysis was collected, stored, and analyzed. The patient as a subject carried solid tumors for which standard treatments for cancer are ineffective or are intolerable, and they were in a state generally referred to as a BSC stage. […]

Test [3] concerns gastric cancer cell line 44As3-11. The experiment in a line: Amino acid concentration in culture medium of gastric cancer cell line with LAT1 inhibitor added. The class given is cell-based. The note with it: 44As3-11 culture, inhibitor added at each concentration, medium collected 0-97 hrs (FIG. 2b). On the procedure: as §1, §2

As to `Nc1cc(COc2c(Cl)cc(C[C@H](N)C(=O)O)cc2Cl)c2oc(-c3ccccc3)nc2c1` [LAT1 inhibitor, O-(5-amino-2-phenylbenzoxazol-7-yl)methyl-3,5-dichloro-L-tyrosine], the “inhibition of the decrease in concentration of eight amino acids in the culture medium” value in test [1] and in test [3] was “property of inhibiting amino acid decrease in a pharmaceutical concentration dependent manner was shown” in each case. In addition, the “concentration of each amino acid in blood serum after single administration versus before administration” value in test [2] (patients at BSC stage, 12 mg/m^2/day, 25.5 hours after start of single administration (FIGS. 4a, 4b)) is reported as “higher than the value before the administration”. Also, the “relative blood concentration of eight amino acids before versus after single administration” value in test [2] (subjects 102 and 104, healthy control mean = 100, Student's t test (FIG. 4c)) is “significant difference between cases before and after the single administration”.

The values are drawn from patent US20160370379A1, “BLOOD-BASED BIOMARKER FOR CANCER” (J-PHARMA CO., LTD., priority 2014, published 2016).
